Data as given in patent publication US11712438B2, “Phenyl derivatives as PGE2 receptor modulators” (IDORSIA PHARMACEUTICALS LTD, priority 2017, dated 2023).

Experiments:
Test in all cases: cell-based
[1] = target: EP4 (Homo sapiens, UniProt P35408);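 note: inhibition of PGE2-evoked (6 nM) cAMP accumulation in BT549 breast cancer cells endogenously expressing EP4, cAMP read by HTRF competitive immunoassay after 30 min at room temperature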
[2] = target: PTGER2 (EP2) (Homo sapiens, UniProt P43116)
[3] = target: EP2 (Homo sapiens, UniProt P43116);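 note: SF295 glioblastoma cells with endogenous EP2 only, PGE2-stimulated cAMP accumulation read by HTRF competitive immunoassay, 45 min pre-incubation then 30 min at room temperature, IBMX in buffer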
Method: The antagonistic activities of the compounds of formula (I) on the EP2 and EP4 receptors are also determined in accordance with the following experimental method.
Human tumor cell lines expressing endogenously either EP4 or EP2 are used and cAMP accumulation in cells upon PGE2 stimulation is monitored. SF295 glioblastoma cells express high endogenous EP2 and no EP4,whereas BT549 breast cancer cells, express high endogenous EP4 levels and very low EP2 levels.
As a detection method for cAMP the HTRF (homogeneous time resolved fluorescence) Cisbio kit (HTRF cAMP dynamic 2 kit 20′000 tests Cisbio Cat. #62AM4PEC) was used, which is based on a competitive immunoassay using a Cryptate-labeled anti-cAMP antibody and d2-labeled cAMP. Native cAMP produced by cells or unlabeled cAMP (for the standard curve) compete with exogenously added d2-labeled cAMP (acceptor) for binding to monoclonal anti-cAMP-Eu3+ Cryptate (donor). A FRET signal (Fluorescence Resonance Energy Transfer) is obtained only if the labeled anti-cAMP antibody binds the d2 labelled cAMP, thus the specific signal (i.e. energy transfer) is inversely proportional to the concentration of cAMP in the standard or sample.
The SF295 cells (NCI/No. 0503170) are detached from culture dishes with a cell dissociation buffer (Invitrogen, 13151-014), and collected in growing medium (GM: RPM11640 (Invitrogen 21875)/10% FCS, 1% Penicilin/streptomycin). Cells are counted washed and resuspended in assay buffer (AB; HBSS, 20 mM HEPES, 0.2% BSA; 2 mM IBMX). 4′000 cells in 5 μl of AB are seeded per well of a small volume 384 well plate (black with flat bottom, Greiner 784076).
PGE2 (Cayman 14010, stock solution: 750 in DMSO) is used as agonist at 75 nM final concentration, corresponding to EC80.
Two point five microliters of diluted compounds are transferred into the assay plate. Plate is pre-incubated 45 minutes at room temperature. Subsequently, 2.5 microliters of PGE2 (final conc. 75 nM) are transferred into the assay plate. Plate is incubated 30 minutes at room temperature.
For each compound concentration the percentage of cAMP compared to DMSO control value as average±STDEV (each concentration is measured in duplicate) is calculated.

[4] = target: PTRGER4 (EP4) (Homo sapiens, UniProt P35408);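 note: assay plate preincubated 15 min at 37 °C, after which PGE2 was added at 20 nM final and incubation continued 120 min at 37 °C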
PTRGER4 (EP4), sequence (P35408 whole entry): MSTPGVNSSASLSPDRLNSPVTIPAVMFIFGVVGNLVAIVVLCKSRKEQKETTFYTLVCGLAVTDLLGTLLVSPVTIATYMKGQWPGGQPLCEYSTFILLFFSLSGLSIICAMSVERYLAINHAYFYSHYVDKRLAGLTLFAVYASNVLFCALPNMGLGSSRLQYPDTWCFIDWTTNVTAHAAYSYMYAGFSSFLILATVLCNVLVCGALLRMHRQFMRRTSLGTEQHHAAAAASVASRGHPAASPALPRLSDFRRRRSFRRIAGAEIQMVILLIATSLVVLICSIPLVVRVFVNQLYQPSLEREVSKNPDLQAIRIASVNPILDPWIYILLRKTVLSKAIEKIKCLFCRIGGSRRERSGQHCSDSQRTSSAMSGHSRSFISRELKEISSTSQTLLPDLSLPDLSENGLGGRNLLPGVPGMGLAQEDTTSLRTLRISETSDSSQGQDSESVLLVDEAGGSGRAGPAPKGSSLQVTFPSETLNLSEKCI

EP2, sequence (P43116 whole entry): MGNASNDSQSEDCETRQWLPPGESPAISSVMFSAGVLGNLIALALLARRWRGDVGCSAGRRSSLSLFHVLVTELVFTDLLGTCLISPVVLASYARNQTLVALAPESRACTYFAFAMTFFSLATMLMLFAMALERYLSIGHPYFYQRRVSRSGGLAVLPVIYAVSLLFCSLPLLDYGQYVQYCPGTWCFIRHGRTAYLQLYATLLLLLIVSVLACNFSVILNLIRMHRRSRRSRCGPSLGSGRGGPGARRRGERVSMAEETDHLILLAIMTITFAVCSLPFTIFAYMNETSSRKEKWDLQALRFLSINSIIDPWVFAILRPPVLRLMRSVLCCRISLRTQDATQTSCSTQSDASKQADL
EP4, sequence (P35408 whole entry): as the sequence (P35408 whole entry) above
PTGER2 (EP2), sequence (P43116 whole entry): as the sequence (P43116 whole entry) above

CCOc1cc(Br)ccc1CCNc1cc(-c2ccc(C(=O)O)c(OCC)c2)ncn1 [Example 51, 4-{6-[2-(4-Bromo-2-ethoxy-phenyl)-ethylamino]-pyrimidin-4-yl}-2-ethoxy-benzoic acid]
IC50 [1]: 684 nM | IC50 [2]: 39 nM | IC50 [3]: 72 nM

CCOc1cc(-c2cc(NCCc3cccc(C(F)(F)F)c3)ncn2)sc1C(=O)O [Example 61, 3-Ethoxy-5-{6-[2-(3-trifluoromethyl-phenyl)-ethylamino]-pyrimidin-4-yl}-thiophene-2-carboxylic acid]
IC50 [4]: 363 nM | IC50 [1]: 161 nM | IC50 [3]: 715 nM

COc1cccc(CCNc2cc(-c3cc(C(F)(F)F)c(C(=O)O)s3)ncn2)c1 [Example 63, 5-{6-[2-(3-Methoxy-phenyl)-ethylamino]-pyrimidin-4-yl}-3-trifluoromethyl-thiophene-2-carboxylic acid]
IC50 [4]: 233 nM | IC50 [1]: 105 nM | IC50 [3]: 644 nM

CCOc1cc(-c2cc(NCCc3cc(OC)cc(OC)c3)ncn2)sc1C(=O)O [Example 67, 5-{6-[2-(3,5-Dimethoxy-phenyl)-ethylamino]-pyrimidin-4-yl}-3-ethoxy-thiophene-2-carboxylic acid]
IC50 [4]: 261 nM | IC50 [1]: 245 nM | IC50 [3]: 712 nM

CCOc1cc(-c2cc(NCCc3ccc(O)cc3)ncn2)sc1C(=O)O [Example 69, 3-Ethoxy-5-{6-[2-(4-hydroxy-phenyl)-ethylamino]-pyrimidin-4-yl}-thiophene-2-carboxylic acid]
IC50 [4]: 915 nM | IC50 [1]: 170 nM | IC50 [3]: 382 nM

CCOc1cc(-c2cc(NCCc3ccc(OC)c(Br)c3)ncn2)sc1C(=O)O [Example 74, 5-{6-[2-(3-Bromo-4-methoxy-phenyl)-ethylamino]-pyrimidin-4-yl}-3-ethoxy-thiophene-2-carboxylic acid]
IC50 [4]: 90 nM | IC50 [1]: 33 nM | IC50 [3]: 533 nM

CCOc1cc(-c2cc(NCCc3cccc(Cl)c3)ncn2)sc1C(=O)O [Example 77, 5-{6-[2-(3-Chloro-phenyl)-ethylamino]-pyrimidin-4-yl}-3-ethoxy-thiophene-2-carboxylic acid]
IC50 [4]: 121 nM | IC50 [1]: 108 nM | IC50 [3]: 415 nM

CCOc1cc(-c2cc(NCCc3cccc(Br)c3)ncn2)sc1C(=O)O [Example 79, 5-{6-[2-(3-Bromo-phenyl)-ethylamino]-pyrimidin-4-yl}-3-ethoxy-thiophene-2-carboxylic acid]
IC50 [4]: 203 nM | IC50 [1]: 106 nM | IC50 [3]: 408 nM

CCOc1cc(-c2cc(NCCc3cccc(F)c3)ncn2)sc1C(=O)O [Example 81, 3-Ethoxy-5-{6-[2-(3-fluoro-phenyl)-ethylamino]-pyrimidin-4-yl}-thiophene-2-carboxylic acid]
IC50 [4]: 554 nM | IC50 [1]: 125 nM | IC50 [3]: 318 nM

CCOc1cc(-c2cc(NCCc3ccc(C)c(C)c3)ncn2)sc1-c1noc(=O)[nH]1 [Example 83, 3-(5-{6-[2-(3,4-Dimethyl-phenyl)-ethylamino]-pyrimidin-4-yl}-3-ethoxy-thiophen-2-yl)-[1,2,4]oxadiazol-5(4H)-one]
IC50 [4]: 14 nM | IC50 [1]: 13 nM | IC50 [3]: 208 nM

CCOc1cc(-c2cc(NCCc3ccc(Br)cc3OC(F)(F)F)ncn2)sc1-c1noc(=O)[nH]1 [Example 84, 3-(5-{6-[2-(4-Bromo-2-trifluoromethoxy-phenyl)-ethylamino]-pyrimidin-4-yl}-3-ethoxy-thiophen-2yl)-[1,2,4]oxadiazol-5(4H)-one]
IC50 [4]: 116 nM | IC50 [1]: 166 nM | IC50 [3]: 358 nM

CCOc1cc(-c2cc(NCCc3ccc(Cl)cc3NC)ncn2)sc1-c1noc(=O)[nH]1 [Example 91, 3-(5-{6-[2-(4-Chloro-2-methylamino-phenyl)-ethylamino]-pyrimidin-4-yl}-3-ethoxy-thiophen-2yl)-[1,2,4]oxadiazol-5(4H)-one]
IC50 [4]: 42 nM | IC50 [1]: 335 nM | IC50 [3]: 2840 nM

CCOc1cc(-c2cc(NCCc3ccc(C(F)(F)F)cc3F)ncn2)sc1-c1noc(=O)[nH]1 [Example 93, 3-(3-Ethoxy-5-{6-[2-(2-fluoro-4-trifluoromethyl-phenyl)-ethylamino]-pyrimidin-4-yl}-thiophen-2yl)-[1,2,4]oxadiazol-5(4H)-one]
IC50 [4]: 3 nM | IC50 [1]: 6 nM | IC50 [3]: 509 nM

CCOc1cc(-c2cc(NCCc3ccc(Br)cc3CC)ncn2)sc1-c1noc(=O)[nH]1 [Example 104, 3-(5-{6-[2-(4-Bromo-2-ethyl-phenyl)-ethylamino]-pyrimidin-4-yl}-3-ethoxy-thiophen-2-yl)-[1,2,4]oxadiazol-5(4H)-one]
IC50 [4]: 101 nM | IC50 [1]: 399 nM | IC50 [3]: 956 nM

CCOc1cc(-c2cc(NCCc3ccc(Br)cc3N3CCCC3)ncn2)sc1-c1noc(=O)[nH]1 [Example 112, 3-(5-{6-[2-(4-Bromo-2-pyrrolidin-1-yl-phenyl)-ethylamino]-pyrimidin-4-yl}-3-ethoxy-thiophen-2yl)-[1,2,4]oxadiazol-5(4H)-one]
IC50 [4]: 80 nM | IC50 [1]: 192 nM | IC50 [3]: 892 nM

CCOc1cc(-c2cc(NCCc3ccc(OC)c(Cl)c3)ncn2)sc1-c1noc(=O)[nH]1 [Example 122, 3-(5-{6-[2-(3-Chloro-4-methoxy-phenyl)-ethylamino]-pyrimidin-4-yl}-3-ethoxy-thiophen-2yl)-[1,2,4]oxadiazol-5(4H)-one]
IC50 [4]: 8 nM | IC50 [1]: 19 nM | IC50 [3]: 906 nM

CCOc1cc(-c2cc(NCCc3ccc(Br)cc3)ncn2)sc1C(N)=O [Example 128, 5-{6-[2-(4-Bromo-phenyl)-ethylamino]-pyrimidin-4-yl}-3-ethoxy-thiophene-2-carboxylic acid amide]
IC50 [4]: 34 nM | IC50 [1]: 235 nM | IC50 [3]: 629 nM

CCOc1cc(-c2cc(NCCc3ccc(Br)cc3)ncn2)sc1C(=N)NO [Example 129, 5-{6-[2-(4-Bromo-phenyl)-ethylamino]-pyrimidin-4-yl}-3-ethoxy-N-hydroxy-thiophene-2-carboxamidine]
IC50 [4]: 45 nM | IC50 [1]: 247 nM | IC50 [3]: 372 nM

CCOc1cc(-c2cc(NCCc3ccc(Br)cc3)ncn2)sc1-c1noc(=S)[nH]1 [Example 132, 3-(5-{6-[2-(4-Bromo-phenyl)-ethylamino]-pyrimidin-4-yl}-3-ethoxy-thiophen-2-yl)-[1,2,4]oxadiazole-5(4H)-thione]
IC50 [4]: 6 nM | IC50 [1]: 60 nM | IC50 [3]: 594 nM

NC(=O)c1sc(-c2cc(NCCc3c(F)cc(Br)cc3F)ncn2)cc1C(F)(F)F [Example 134, 5-{6-[2-(4-Bromo-2,6-difluoro-phenyl)-ethylamino]-pyrimidin-4-yl}-3-trifluoromethyl-thiophene-2-carboxylic acid amide]
IC50 [4]: 98 nM | IC50 [1]: 718 nM | IC50 [3]: 284 nM

CCOc1cc(-c2cc(NCCc3ccc(Br)cc3)ncn2)sc1Cc1noc(=O)[nH]1 [Example 137, 3-(5-{6-[2-(4-Bromo-phenyl)-ethylamino]-pyrimidin-4-yl}-3-ethoxy-thiophen-2-ylmethyl)-[1,2,4]oxadiazol-5(4H)-one]
IC50 [4]: 411 nM | IC50 [1]: 963 nM | IC50 [3]: 371 nM

CCOc1cc(-c2cc(NCCc3ccc(Br)cc3)ncn2)sc1-c1noc(N)n1 [Example 139, {6-[5-(5-Amino-[1,2,4]oxadiazol-3-yl)-4-ethoxy-thiophen-2-yl]-pyrimidin-4-yl}-[2-(4-bromo-phenyl)-ethyl]-amine]
IC50 [4]: 6 nM | IC50 [1]: 149 nM | IC50 [3]: 290 nM

CCOc1cc(-c2cc(NCCc3ccc(Br)cc3)ncn2)sc1-c1noc(OC)n1 [Example 140, [2-(4-Bromo-phenyl)-ethyl]-{6-[4-ethoxy-5-(5-methoxy-[1,2,4]oxadiazol-3-yl)-thiophen-2-yl]-pyrimidin-4-yl}-amine]
IC50 [4]: 12 nM | IC50 [1]: 218 nM | IC50 [3]: 345 nM

CCOc1cc(-c2cc(NCCc3ccc(Br)cc3)ncn2)sc1-c1noc(NCCO)n1 [Example 141, 2-[3-(5-{6-[2-(4-Bromo-phenyl)-ethylamino]-pyrimidin-4-yl}-3-ethoxy-thiophen-2-yl)-[1,2,4]oxadiazol-5-ylamino]-ethanol]
IC50 [4]: 8 nM | IC50 [1]: 168 nM | IC50 [3]: 381 nM

CCOc1cc(-c2cc(NCCc3ccc(Br)cc3)ncn2)sc1CCc1noc(=O)[nH]1 [Example 144, 3-[2-(5-{6-[2-(4-Bromo-phenyl)-ethylamino]-pyrimidin-4-yl}-3-ethoxy-thiophen-2-yl)-ethyl]-[1,2,4]oxadiazol-5(4H)-one]
IC50 [4]: 126 nM | IC50 [1]: 433 nM | IC50 [3]: 1000 nM

NC(=O)Cc1ccc(-c2cc(NCCc3ccc(Br)cc3)ncn2)s1 [Example 158, 2-(5-{6-[2-(4-Bromo-phenyl)-ethylamino]-pyrimidin-4-yl}-thiophen-2-yl)-acetamide]
IC50 [4]: 2270 nM | IC50 [1]: 913 nM | IC50 [3]: 643 nM

CCOc1cc(-c2cc(NCCc3cc(Cl)ccc3C#N)ncn2)sc1-c1noc(=O)[nH]1 [Example 160, 4-Chloro-2-(2-{6-[4-ethoxy-5-(5-oxo-4,5-dihydro-[1,2,4]oxadiazol-3-yl)-thiophen-2-yl]-pyrimidin-4-ylamino}-ethyl)-benzonitrile]
IC50 [4]: 134 nM | IC50 [1]: 256 nM | IC50 [3]: 318 nM

CCOc1cc(-c2cc(NCCc3ccc(N(C)C)cc3F)ncn2)sc1-c1noc(=O)[nH]1 [Example 161, 3-(5-{6-[2-(4-Dimethylamino-2-fluoro-phenyl)-ethylamino]-pyrimidin-4-yl}-3-ethoxy-thiophen-2-yl)[1,2,4]oxadiazol-5(4H)-one]
IC50 [4]: 10 nM | IC50 [1]: 40 nM | IC50 [3]: 713 nM

CCOc1cc(-c2cc(NCCc3ccc(Br)cc3)ncn2)sc1CC(N)=O [Example 287, 2-(5-{6-[2-(4-Bromo-phenyl)-ethylamino]-pyrimidin-4-yl}-3-ethoxy-thiophen-2-yl)-acetamide]
IC50 [4]: 315 nM | IC50 [1]: 1210 nM | IC50 [3]: 868 nM

Brc1ccc(CCNc2cc(-c3ccc(Cc4nnn[nH]4)s3)ncn2)cc1 [Example 288, [2-(4-Bromo-phenyl)-ethyl]-{6-[5-(1H-tetrazol-5-ylmethyl)-thiophen-2-yl]-pyrimidin-4-yl}-amine]
IC50 [4]: 1190 nM | IC50 [1]: 775 nM | IC50 [3]: 739 nM
